Among the data in US10508118B2, “Pyrimidopyrrole compounds, method for preparing the same, pharmaceutical compositions comprising the same and uses thereof” (Xiamen University, priority 2015, dated 2019) are IC50, targeting selectivity and growth inhibition values, retold here.

Assay type in all cases: cell-based
The test system of one test is wild type BaF3. In words: Growth inhibition of wild type BaF3 cells (broad-spectrum toxicity). Conditions: Mus musculus, BaF3, 48 h, MTS. The method in brief: (§1)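 MTS absorbance at 490 nm, measured 1–4 h after reagent addition, reports growth after 48 h compound exposure (37 °C, 5% CO2) of 2×10^4 cells/well. Eight 1/3-step concentrations from a 10 μM top, 0.1% DMSO; triplicate inhibition relative to vehicle and blank gives IC50.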

The next test concerns lung cancer cells H3122. In words: Growth inhibition of tumor cells H3122. The note with it: Homo sapiens, NCI-H3122.
For a further test, the system named is lung cancer cells A549. Put plainly: Growth inhibition of tumor cells A549. The note with it: Homo sapiens.
The next test has as its target T1, EML4-ALK-BaF3 (Homo sapiens, UniProt Q9UM73).
T1 construct: expressed in transfected cells; host or cells: Ba/F3 cells; the other entry of the earlier key: EML4 (Q9HC35, Echinoderm microtubule-associated protein-like 4)
In words: Growth inhibition of EML4-ALK transformed BaF3 cells (MTS). The note with it: for IC50: EML4-ALK-BaF3 cells, 48 hours, MTS, Table 11. The method in brief:
(§2)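 Ba/F3 cells (2×10^4/well) in DMEM or RPMI1640 with 10% FBS exposed to 8 compound concentrations (top 10 μM, 1/3 serial dilution, 0.1% DMSO) for 48 h at 37 °C, 5% CO2. Viability by MTS/PES, 1-4 h, OD 490 nm; triplicates. IC50 fitted from inhibition rate.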

A further test concerns the target T2, EML4-ALK (L1196M)-BaF3 (Homo sapiens, UniProt Q9UM73, L1196M).
T2 construct: expressed in transfected cells; host or cells: Ba/F3 cells; the other entry of the earlier key: EML4 (Q9HC35, Echinoderm microtubule-associated protein-like 4)
Put plainly: Growth inhibition of EML4-ALK (L1196M) transformed BaF3 cells (MTS). Conditions: 48 hours, Table 11, read-out: EML4-ALK (L1196M) (IC50 nM). The method in brief:
as §2

A further test deals with T3, NPM-ALK-BaF3 (Homo sapiens, UniProt Q9UM73).
T3 construct: expressed in transfected cells; host or cells: Ba/F3 cells; the other entry of the earlier key: NPM1 (P06748, Nucleophosmin)
Put plainly: Growth inhibition of NPM-ALK transformed BaF3 cells (MTS). The note with it: 48 hours, Table 11. Summed up:
as §1

A further test deals with melanoma A375. Put plainly: Growth inhibition of tumor cells A375. The note with it: Homo sapiens, A-375.
The subject of a further test is liver cancer HepG2. In words: Growth inhibition of tumor cells HepG2. Conditions: Homo sapiens.
The subject of another test is breast cancer MCF7. Put plainly: Growth inhibition of tumor cells MCF7. Conditions: Homo sapiens.
Test [1] relates to DFC1076 (crizotinib resistant tumor cell lines). Put plainly: Growth inhibition of tumor cells DFC1076. The note with it: ALK kinase-positive lung cancer cell line.

A value given as a limit tells only on which side of the number the result lay.

On to `C[C@@H](Oc1cc(-c2cnn(C3CCNCC3)c2)cnc1N)c1c(Cl)ccc(F)c1Cl` [Crizotinib, crizotinib, reference compound], for which the IC50 in the test with wild type BaF3 (Table 11) was 1080 nM; with wild type BaF3 (Table 12) it was 1080 nM; with lung cancer cells H3122 it was 185 nM; with lung cancer cells A549 it was 2400 nM.
For `COc1cc(N2CCC(N3CCN(C)CC3)CC2)ccc1Nc1nc(Nc2ccccc2S(=O)(=O)C(C)C)c2[nH]ccc2n1` [ID-3], the IC50 at EML4-ALK-BaF3 stood at 14.9 nM; on EML4-ALK (L1196M)-BaF3 it was 168 nM; against NPM-ALK-BaF3, 303 nM; with wild type BaF3 (Table 11), 1010 nM; in the test on lung cancer cells H3122, 61.1 nM; in the test with lung cancer cells A549, 2720 nM. Moreover, the values for the IC50 with melanoma A375, in the test with liver cancer HepG2 and in the test on breast cancer MCF7 were 3760 nM, 3440 nM and 2840 nM, respectively. Besides, the targeting selectivity result at EML4-ALK-BaF3 (ratio of IC50 between wild-type BaF3 and ALK transformed BaF3 cells) is “good targeting selectivity”. Moreover, the growth inhibition result in [1] is “good growth inhibition”.
Turning to `COC(=O)c1ccccc1Oc1nc(Nc2ccc(N3CCN(C)CC3)cc2OC)nc2cc[nH]c12` [IV-1], the IC50 at EML4-ALK-BaF3 is 6900 nM; at EML4-ALK (L1196M)-BaF3, 7310 nM; against NPM-ALK-BaF3, above 10000 nM; in the test on wild type BaF3 (Table 11), above 10000 nM.
For `COC(=O)c1ccccc1Oc1nc(Nc2ccc(N3CCC(N4CCN(C)CC4)CC3)cc2OC)nc2cc[nH]c12` [IV-2], the IC50 was around 8980 nM at EML4-ALK-BaF3, 3960 nM on EML4-ALK (L1196M)-BaF3, around 9140 nM at NPM-ALK-BaF3 and around 8450 nM with wild type BaF3 (Table 11).
In the same order, the values of `COC(=O)c1ccccc1Oc1nc(Nc2ccc(N3CCC(O)CC3)cc2)nc2cc[nH]c12` [IV-3] are 4550 nM, 4340 nM, 8150 nM and 8920 nM.
In the same order, the values of `COC(=O)c1ccccc1Oc1nc(Nc2ccc(S(N)(=O)=O)cc2)nc2cc[nH]c12` [IV-4] are above 10000 nM, above 10000 nM, above 10000 nM and above 10000 nM.

By IC50 is commonly meant the concentration needed to halve the response being measured.
